Measurements as given in patent US4517180A, “Peptides, process for preparing the same and psychodepressant compositions containing the same” (Amano Pharmaceutical Co., Ltd, priority 1982, dated 1985).
Where a SMILES comes first, the peptide text is derived from it.

Experiments:
Type in all cases: in vivo
male Wister rats [1] = assay: Effect on yawning behavior induced by apomorphine; conditions: for Number of yawns (average): 30 min before apomorphine 0.03 mg/kg s.c., counted 30 min, control 4.5; for Effect on yawning behavior induced by apomorphine (in words): rats, s.c.
Procedure: Effect on yawning behavior
Male Wister rats (weighing 200 to 300 g) were used, with 10 rats in each group. The rat was placed into a plastics cage (17×24×12 cm) with a floor mat and was then habituated for 30 minutes. Peptide A, peptide B, CCK-8 or the above-mentioned diluent serving as a control was subcutaneously given to the animal. Thirty minutes thereafter, 0.03 mg/kg of apomorphine was subcutaneously given to the animal. The number of yawns induced by apomorphine was counted during a period of 30 minutes following administration of apomorphine. The test was conducted in a soundproof compartment for each animal. Wilcoxon rank-sum test was resorted to for statistical treatment.

Male ddy mice [2] = assay: Effect on hyperlocomotion induced by thyrotropin releasing hormone (TRH); conditions: for Activity counts (frequency per 60 min): Mean ± S.E.: 30 min before TRH 5 mg/kg i.p., control 1215 ± 114; for Effect on hyperlocomotion induced by TRH (in words): mice, s.c.
Procedure: Effect on hyperlocomotion induced by thyrotropin releasing hormone (TRH)
Male ddy mice (weighing 18 to 24.5 g) were used. The mice were placed into a transparent acrylic resin cage (26×37×11 cm) installed on Animex meter. Before experiment, the mice were allowed to habituate for 2 hours in the cage to fully lower the activity of the mice. After the completion of habituation, peptide A, peptide B or a diluent (physiological saline containing 1 mg/ml of sodium hydrogencarbonate) serving as a control was subcutaneously given to the mice. Thirty minutes thereafter, 5 mg/kg of TRH was intraperitoneally given to the animals. The activity counts during the period of 60 minutes following the administration of TRH was measured. Student's t-test was resorted to for statistical treatment.

Male ddy mice [3] = assay: Effect on climbing behavior induced by apomorphine (Pharmacological Test 2); design: key to Average: Mean ± S.E. (total of 7 scores), climbing behavior: sum of 7 scores; 0 = all four legs on floor, 2 = ≥3 legs on rods; conditions: for Average: Mean ± S.E. (total of 7 scores), climbing behavior: 30 min before apomorphine 0.75 mg/kg s.c., control 9.8 ± 0.7; for Effect on apomorphine-induced climbing behavior (in words): mice, s.c.
Procedure: (§1) Effect on climbing behavior induced by apomorphine
Male ddy mice (weighing 20 to 30 g) were used, with 10 mice in each group. Each mouse was placed into a cylindrical cage, 12 cm in diameter and 14 cm in height, made up of vertical rods of 2 mm in diameter spaced apart at a distance of 10 mm in a circular arrangement. The mouse was allowed to stand therein for 2 hours. Peptide A, peptide B, CCK-8 or, as a control, the above-mentioned diluent was subcutaneously given to the animal, and 30 minutes later, 0.75 mg/kg of apomorphine was subcutaneously given. […] The test was carried out in soundproof compartments.
(§2) 0: All the four legs are on the floor.
(§3) 2: At least three legs are on rods.
Student's t-test was resorted to for statistical treatment.

male Wister rats [4] = assay: Effect on metabolism of amine in the brain; conditions: 1 mg/kg s.c., 1 hour after administration
Procedure: Effect on metabolism of amine in the brain
Unfasted male Wister rats (weighing 180 to 220 g) were used. Peptide A or peptide B was subcutaneously given to the animal at a dose of 1 mg/kg, the head was irradiated with microwave 1 hour thereafter, and amine metabolite was extracted from the brain. First, removed tissues were homogenized with 1M formic acid and centrifuged at 20,000×g for 20 minutes, and the supernatant (1 ml) was shaken with 5 ml of ethyl acetate. The 3,4-dihydroxyphenylacetic acid (DOPAC), homovanillic acid (HVA) and 5-hydroxyindoleacetic acid (5-HIAA) in the ethyl acetate layer were analyzed by high-performance liquid chromatography under the following conditions. Chemcosorb, 5-ODS, 20 cm×4.6 mm I.D. was used for a separating column, and a mobile phase (0.1M KH2 PO4 (pH 5.0)-5 mM EDTA-2Na-5% acetonitrile) was passed through the colunn at a flow rate of 1 ml/min. The electrochemical detector was set to an oxidation potential of +0.8 V.

male Wister rats [5] = assay: Effect on the fixed ratio (FR20) responding in rats; conditions: s.c., 15 min before 20 min session, dose giving count 50 with control as 100
Procedure: Effect on the fixed ratio responding in rats
The test was conducted according to the method described in Ahlenius S. and Engel J., Eur. J. Pharm., Vol. 15, 187-192 (1971).
Male Wister rats (weighing 240 to 320 g) were placed into Skinner box (product of Bil-Medika Co., Ltd., Japan, adapted to give a feed when a lever within the box is pressed) and made to learn how to take the food. In this test, one feed was given to the rats when the lever was pressed 20 times, i.e., fixed ratio (FR) 20. The rats showing stable FR20 response were divided into groups each including four rats.
Physiological saline (containing 1 mM of sodium hydrogencarbonate) containing a specified amount of a test compound was subcutaneously given to the rats of one group in a volume of 0.1 ml/100 g. (Physiological saline containing the above-mentioned amount of sodium hydrogencarbonate only was given to the control group). Fifteen minutes after the administration, the test animals were placed in the Skinner box, and the number of times the animals took the feed for 20 minutes was counted. The dose at which the count gained by the group of animals was 50, namely, ED50 value, was determined, with the count gained by the control group calculated as 100. The same procedure as above was repeated with use of the other test compounds.

Male ICR mice = assay: Inhibitory effect on hyperlocomotion induced by administration of methylphenidate; conditions: for Inhibitory effect on methylphenidate-induced hyperlocomotion (in words): s.c.; for ED50, inhibition of methylphenidate-induced hyperlocomotion: s.c. with methylphenidate 10 mg/kg s.c., measured 1 hour after, 50 with control as 100
Procedure: Inhibitory effect on hyperlocomotion induced by administration of methylphenidate
Male ICR mice (weighing 24 to 30 g) were divided into groups, each including 10 mice. To one group of mice were subcutaneously given 10 mg/kg of methylphenidate and 0.1 ml/10 g of a saline solution of a specified amount of a test compound and 1 mM of sodium hydrogencarbonate. One hour after the administration, the test animals were checked for hyperlocomotion, which was measured with use of a device for measuring locomotion of small animals (wherein the motion of an animal shifts the center of graavity of the device to actuate a microswitch for the measurement of the amount of motion, see Folia Pharmacologica Japonica, 74, 629-639 (1978). For a control group, the same procedure as above was repeated except that the saline solution given was free from any test compound. The concentration of the test compound at which the result achieved by the group of animals was 50, namely, ED50 value, was determined, with the measurement obtained by the control group calculated as 100. The other compounds were tested in the same manner as above.

Male ddy mice [6] = assay: Effect on climbing behavior induced by apomorphine (Pharmacological Test 7); design: key: sum of 7 scores; each 0 = four legs on floor, 2 = ≥3 legs on rods; conditions: control 9.8 ± 0.7
Procedure: as §1
Male ddy mice (weighing 20 to 30 g) were used, with 10 mice in each group. Each mouse was placed into a cylindrical cage, 12 cm in diameter and 14 cm in height, made up of vertical rods of 2 mm in diameter spaced apart at a distance of 10 mm in a circular arrangement. The mouse was allowed to stand therein for 2 hours. Physiological saline containing a specified amount of a test compound (and 1 mM of sodium hydrogencarbonate) was subcutaneously given to one group of mice in a volume of 1 ml/10 g. (The same dose of saline only was given to a control group). […] The test was carried out in soundproof compartments.
as §2, §3
The other compounds were tested in the same manner as above. The test was carried out in soundproof compartments. Student's t-test was resorted to for statistical treatment.

| Compound | Number of yawns (average) (male Wister rats [1]; 1 mg/kg s.c.) | Effect on yawning behavior induced by apomorphine (in words) (male Wister rats [1]) | Activity counts (frequency per 60 min): Mean ± S.E. (Male ddy mice [2]; 0.1 mg/kg s.c.) [frequency per 60 min] | Activity counts (frequency per 60 min): Mean ± S.E. (Male ddy mice [2]; 0.3 mg/kg s.c.) [frequency per 60 min] | Effect on hyperlocomotion induced by TRH (in words) (Male ddy mice [2]) | Average: Mean ± S.E. (total of 7 scores), climbing behavior (Male ddy mice [3]; 0.01 mg/kg s.c.) | Average: Mean ± S.E. (total of 7 scores), climbing behavior (Male ddy mice [3]; 0.1 mg/kg s.c.) | Average: Mean ± S.E. (total of 7 scores), climbing behavior (Male ddy mice [3]; 1 mg/kg s.c.) | Effect on apomorphine-induced climbing behavior (in words) (Male ddy mice [3]) | Increase of DOPAC content in hypothalamus (male Wister rats [4]) | Influence on content of metabolite (DOPAC, HVA, 5-HIAA) in frontal cortex, limbic forebrain and striatum (male Wister rats [4]) | ED50, inhibition of FR20 responding (male Wister rats [5]) [mg/kg] | Inhibitory effect on methylphenidate-induced hyperlocomotion (in words) (Male ICR mice) | ED50, inhibition of methylphenidate-induced hyperlocomotion (Male ICR mice) [mg/kg] | Average: Mean ± S.E. (total of 7 scores), climbing behavior (Male ddy mice [6]; 0.1 mg/kg s.c.) | Average: Mean ± S.E. (total of 7 scores), climbing behavior (Male ddy mice [6]; 0.3 mg/kg s.c.) | Average: Mean ± S.E. (total of 7 scores), climbing behavior (Male ddy mice [6]; 1.0 mg/kg s.c.) | also measured |
| --- | --- | --- | --- | --- | --- | --- | --- | --- | --- | --- | --- | --- | --- | --- | --- | --- | --- | --- |
| CSCC[C@H](NC(=O)[C@H](Cc1ccc(OS(=O)(=O)O)cc1)NC(=O)[C@H](CC(=O)O)NC(=O)[C@@H]1CCC(=O)N1)C(=O)NCC(=O)N[C@@H](Cc1c[nH]c2ccccc12)C(=O)N[C@@H](CCSC)C(=O)N[C@@H](CC(=O)O)C(=O)N[C@@H](Cc1ccccc1)C(N)=O [Peptide B, pGlu--Asp--Tyr(SO3 H)--Met--Gly--Trp--Met--Asp--Phe--NH2] | 1.0 | inhibit the yawning behavior induced by apomorphine | 601 ± 78 | 626 ± 143 | inhibit the hyperlocomotion induced by TRH | 8.7 ± 0.8 | 5.4 ± 0.8 | 4.7 ± 1.1 | inhibit the climbing behavior | about 60% | Neither of peptide A and peptide B was found to influence | – | – | – | – | – | – | Activity counts (frequency per 60 min): Mean ± S.E. (Male ddy mice [2]; 0.03 mg/kg s.c.): 1009 ± 165 frequency per 60 min |
| CSCC[C@H](NC(=O)[C@H](Cc1ccc(OS(=O)(=O)O)cc1)NC(=O)CCC(=O)O)C(=O)NCC(=O)N[C@@H](Cc1c[nH]c2ccccc12)C(=O)N[C@@H](CCSC)C(=O)N[C@@H](CC(=O)O)C(=O)N[C@@H](Cc1ccccc1)C(N)=O [Peptide D, Suc--Tyr(SO3 H)--Met--Gly--Trp--Met--Asp--Phe--NH2] (HELM PEPTIDE1{[O=C(O)CCC(=O)[*:2]].[O=C([C@H](Cc1ccc(OS(=O)(=O)O)cc1)N[*:1])[*:2]].M.G.W.M.D.F.[am]}$$$$V2.0) | – | – | – | – | – | – | – | – | – | – | – | 0.0102 | especially high inhibitory effect | 0.0345 | 7.0 ± 0.3 | 5.9 ± 0.9 | 4.5 ± 1.0 | – |
| CSCC[C@H](NC(=O)[C@H](Cc1ccc(OS(=O)(=O)O)cc1)NC(=O)CCCC(=O)O)C(=O)NCC(=O)N[C@@H](Cc1c[nH]c2ccccc12)C(=O)N[C@@H](CCSC)C(=O)N[C@@H](CC(=O)O)C(=O)N[C@@H](Cc1ccccc1)C(N)=O [Peptide E, Glt--Tyr(SO3 H)--Met--Gly--Trp--Met--Asp--Phe--NH2] (HELM PEPTIDE1{[O=C(O)CCCC(=O)[*:2]].[O=C([C@H](Cc1ccc(OS(=O)(=O)O)cc1)N[*:1])[*:2]].M.G.W.M.D.F.[am]}$$$$V2.0) | – | – | – | – | – | – | – | – | – | – | – | 0.004 | especially high inhibitory effect | 0.0879 | 9.1 ± 0.9 | 7.9 ± 0.9 | 6.5 ± 0.7 | – |
| CSCC[C@H](NC(=O)[C@H](Cc1ccc(OS(=O)(=O)O)cc1)NC(=O)[C@H](CC(=O)O)NC(=O)CCCC(=O)O)C(=O)NCC(=O)N[C@@H](Cc1c[nH]c2ccccc12)C(=O)N[C@@H](CCSC)C(=O)N[C@@H](CC(=O)O)C(=O)N[C@@H](Cc1ccccc1)C(N)=O [Peptide A, Glt--Asp--Tyr(SO 3 H)--Met--Gly--Trp--Met--Asp--Phe--NH2] | 0 | inhibit the yawning behavior induced by apomorphine | 936 ± 115 | 613 ± 114 | inhibit the hyperlocomotion induced by TRH | 8.6 ± 0.6 | 5.3 ± 0.5 | 4.5 ± 1.0 | inhibit the climbing behavior | about 60% | Neither of peptide A and peptide B was found to influence | – | – | – | – | – | – | Number of yawns (average) (male Wister rats [1]; 0.3 mg/kg s.c.): 1.5; Activity counts (frequency per 60 min): Mean ± S.E. (Male ddy mice [2]; 1 mg/kg s.c.): 148 ± 34 frequency per 60 min; Average: Mean ± S.E. (total of 7 scores), climbing behavior (Male ddy mice [3]; 0.03 mg/kg s.c.): 7.9 ± 0.6; Average: Mean ± S.E. (total of 7 scores), climbing behavior (Male ddy mice [3]; 0.3 mg/kg s.c.): 5.1 ± 0.7 |
